Experimental data reported in paper PMC12232897, “Harnessing Negative Photochromism in Styryl Cyanines for Light‐Modulated Proton Transport” (Angewandte Chemie (International Ed. in English), 2025).

Legend:
Format in all cases: physicochemical
[1] = pKa in the dark and under light irradiation; details: for pKa: water:DMSO 99:1, dark, read-out: pKa dark (open form)
Excerpt: Since light‐induced cyclization is also associated with a change in the nature of the amino group of 1a–e, we investigated the change in their pK a upon light irradiation. This phenomenon has been already reported in the literature for other photoresponsive molecules,^[ [41], [42] ^] and it is recognized that, apart from being key in many biological processes, is a powerful tool for potential applications in catalysis^[ [43] ^] or self‐assembly.^[ [44] ^] […] Moreover, for compounds 1b and 1c, bearing methoxy groups, the change in pK a generated upon light irradiation is considerably smaller than for compounds 1d and 1e, bearing fluorine groups. This difference can be easily associated with the nature of the substituents, where for 1d–e the electron‐withdrawing effect of the fluorine favors a higher acidity of the closed isomers, contrarily to the effect of the electron‐donating groups for 1b–c.

Solubility in solvents = details: solvent
Excerpt: Having explored the effect of substituents, we next focused on the impact of the medium. […] These findings can be explained using the reported hydrogen‐bond donor (HBD) acidity (Taft–Kamlet α‐scale) of the utilized solvents.^[ [39] ^] Such a big difference in thermal half‐life has to be associated with the proton transfer from the secondary amine (in the closed form) to the phenol group since the back relaxation from the closed form to the open conjugated form is a […] process. We hypothesize that solvents like water and methanol trigger a Grotthus‐like proton transfer mechanism which speeds up the back‐relaxation process, similar to what was previously reported for other phenol‐bearing photoswitches.^[ [40] ^]
Similar to what is observed for the other compounds, the half‐life of closed 1f in water is extremely small (Table 1). This opens the opportunity of using 1f in out‐of‐equilibrium^[ [45] ^] and dissipative water‐based systems. Moreover, irradiation of 1f triggers the photo reactions that generate its respective closed indole‐like form, which compared to the closed forms of 1a–e also has a lower value of pK^hν (Table 1) and generates a higher ΔpK a value between the open and closed forms, being 1.7 pK a units, thanks to the electron‐withdrawing effect coming from the presence of a sulfonate group.

[2] = Fatigue resistance / photostability under 365 nm irradiation; details: UV–vis absorbance kinetic experiments

pKa [1]	ΔpKa between the open and closed forms ([1]; water:DMSO 99:1) [pK a units]	Photostability on prolonged irradiation at 365 nm [2]	Structure (SMILES)	Solubility (Solubility in solvents)
4.3	–	–	CC1(C)C(/C=C/c2ccccc2O)=Nc2ccccc21 [1a]	soluble in both polar and apolar solvents
4.6	–	–	COc1ccc2c(c1)C(C)(C)C(/C=C/c1ccccc1O)=N2 [1b]	–
4.3	–	–	COc1ccc(O)c(/C=C/C2=Nc3ccccc3C2(C)C)c1 [1c]	–
4.3	–	–	CC1(C)C(/C=C/c2ccccc2O)=Nc2ccc(F)cc21 [1d]	–
4.3	–	–	CC1(C)C(/C=C/c2cc(F)ccc2O)=Nc2ccccc21 [1e]	–
3.9	1.7	–	CC1(C)C(/C=C/c2ccccc2O)=Nc2ccc(S(=O)(=O)[O-])cc21.[K+] [1f]	fully soluble and fully switchable in water
–	–	photodegradation of the sample	COc1ccccc1/C=C/C1=Nc2ccccc2C1(C)C [1g]	–
